# According to patent US20240417404A1, “CRYSTALLINE FORMS OF N-[4-[4-(4-MORPHOLINYL)-7H-PYRROLO[2,3-d]PYRIMIDIN-6-YL]PHENYL]-4-[[3(R)-[(1-OXO-2-PROPEN-1-YL)AMINO]-1-[sequence]]METHYL]-2-PYRIDINECARBOXAMIDE AS IRREVERSIBLE INHIBITORS OF MENIN-MLL INTERACTION” (BIOMEA FUSION, INC., priority 2023, published 2024):
# Experiments:
# [1] = Solid form stability (XRPD after storage, conversion in MeOH/water, thermal); assay type: physicochemical
# Protocol: X-ray powder diffraction patterns were collected on a Bruker AXS C2 GADDS or Bruker AXS D8 diffractometer.
# X-ray Powder Diffraction patterns were collected on a Bruker AXS C2 GADDS diffractometer using Cu Kα radiation (40 kV, 40 mA), automated XYZ stage, laser video microscope for auto-sample positioning, and a HiStar 2-dimensional area detector. X-ray optics consists of a single Göbel multilayer mirror coupled with a pinhole collimator of 0.3 mm. A weekly performance check is carried out using a certified standard NIST 1976 Corundum (flat plate). The beam divergence (i.e., the effective size of the X-ray beam on the sample) was approximately 4 mm. A θ-θ continuous scan mode was employed with a sample—detector distance of 20 cm which gives an effective 2θ range of 3.2°-29.7°. Typically the sample would be exposed to the X-ray beam for 120 seconds. The software used for data collection was GADDS for WNT 4.1.16 and the data were analyzed and presented using Diffrac Plus EVA v11.0.0.2 or v13.0.0.2.
# X-ray Powder Diffraction patterns were collected on a Bruker D8 diffractometer using Cu Kα radiation (40 kV, 40 mA), θ-2θ goniometer, and divergence of V4 and receiving slits, a Ge monochromator and a Lynxeye detector. The instrument is performance checked using a certified Corundum standard (NIST 1976). The software used for data collection was Diffrac Plus XRD Commander v2.5.0 and the data were analysed and presented using Diffrac Plus EVA v11.0.0.2 or v13.0.0.2. Samples were run under ambient conditions as flat plate specimens using powder as received. The sample was gently packed into a cavity cut into a polished, zero-background (510) silicon wafer. The sample was rotated via its own plane during analysis. The details of the data collection are: • Angular range: 2 to 42 02θ • Step size: 0.05 02θ • Collection time: 0.5 s/step
# [2] = Hygroscopicity (water absorption versus relative humidity); assay type: physicochemical; details: from 40% RH to 70% RH at 25° C.
# [3] = Solubility of Compound A crystalline forms in aqueous buffers and biorelevant media; details: aqueous buffer, solubility, water, pH 4.5 acetate buffer, pH 6.8 phosphate buffer, pH 5.0 FeSSIF-v1 and pH 6.5 FaSSIF-v1
# physchem = details: pH 4.5, aqueous buffer, observed aqueous solubility
smiles,measurement,setting,value
"C=CC(=O)N[C@@H]1CCCN(Cc2ccnc(C(=O)Nc3ccc(-c4cc5c(N6CCOCC6)ncnc5[nH]4)cc3)c2)C1 [Form K, N-[4-[4-(4-morpholinyl)-7H-pyrrolo[2,3-d]pyrimidin-6-yl]phenyl]-4-[[3(R)-[(1-oxo-2-propen-1-yl)amino]-1-piperidinyl]methyl]-2-pyridinecarboxamide]",XRPD pattern post storage,[1]; closed container at 60° C. and 75% RH for at least a week,substantially the same X-ray powder diffraction (XRPD) pattern
same,XRPD pattern post storage,[1]; open container at 25° C. and 92% RH for at least a week,substantially the same X-ray powder diffraction (XRPD) pattern
same,XRPD pattern post storage,[1]; open container at 40° C. and 75% RH for at least a week,substantially the same X-ray powder diffraction (XRPD) pattern
same,Stability,"[1]; polymorph stability, K converted into Pattern D in MeOH/water mixture (water activity from 0 to 1), listed as K",Low-Converted into
same,Stability (thermal),[1]; thermal,But thermally very stable
same,observed hygroscopicity and absorption of water,[2],about 2.1%
same,solubility,[3],< 35 µg/mL
same,solubility,physchem,~4 µg/mL
